Type in all cases: cell-based
One experiment has as its system HT-29 cells. The experiment can be described thus: Cell proliferation assay (CellTiter Glo), HT-29. The note with it: Homo sapiens, HT-29, 72 h, read-out: HT-29 IC50. The procedure:
(§1) IC50 values were calculated and graphed using the model “log(inhibitor) vs. response—Variable slope” included in GraphPad Prism 5 (San Diego, CA). The Ki values were further calculated using the equation below where [L] was the radioligand concentration (1 nM) using in this study. Kd value was 0.332 nM. Ki=IC50/(1+[L]/Kd) c. AR transactivation: Human AR cloned into a CMV vector backbone was used for the transactivation study. HEK-293 cells were plated at 80,000 cells per well of a 24 well plate in DME+5% csFBS. Twenty four hours later, the cells were transfected using Lipofectamine (Invitrogen, Carlsbad, CA) with 0.25 μg GRE-LUC, 0.01 μg CMV-LUC (renilla luciferase) and 25 ng of the AR in OPTIMEM medium. The cells were treated 24 hrs after transfection with various ligands (10^−12 to 10^−5 M final concentrations) and luciferase assay were performed 48 hours after transfection. Firefly values were normalized to renilla luciferase values and the values were represented as relative light units (RLU). Agonist and antagonist assays for the test article were performed in the absence and in the combination with 0.1 nM R1881, respectively. Data were represented as EC50 (for agonists) and IC50 (for antagonists) obtained from four parameter logistics curve. Cell culture and proliferation assays: LNCaP, PC-3, 22RV1, MCF-7, HT-29, and HCT-116 cells were procured from American Type Culture Collection (ATCC). Cells were cultured in medium recommended by the ATCC. Cell culture medium was obtained from Fisher scientific (Waltham, MA) and serum was obtained from Hyclone (San Angelo, TX).
Cells were plated at varying density in the respective growth medium in 96 well plates. 24 hr later, cells were treated, in triplicate or quadruplicate, with test articles prepared in a range of concentrations by series dilution of DMSO stock solutions in growth medium and incubated for three to seven days. The number of viable 22RV1 and HT-29 cells was measured using CellTiter Glo assay (CTG, Promega, Madison, WI) after three days of treatment. The other types of cancer cells were re-treated at three or four days and the number of viable cells was measured using CTG assay after a total treatment time of six or seven days. Cell viability data were plotted using GraphPad Prism (GraphPad Software, Inc., San Diego, CA). In addition, a nonlinear regression model with a sigmoidal dose response and variable slope within GraphPad Prism was used to calculate the IC50 value of individual test articles. Additional cell proliferation assays: Other cancer cell lines are tested in a cell proliferation assay. For example, SK-OV-3 or OVCAR3 ovarian cancer cells are tested. Cells are cultured in medium recommended by the supplier (e.g., ATCC or JCRB Cell Bank), at 37° C. in a 5% CO2 environment. For the proliferation assay, cells are plated in the growth medium in 96 well plates. Seeding density is adjusted according to the cell type. 24 hr later, cells are treated, in triplicate or quadruplicate, with test articles prepared in a range of concentrations by series dilution of DMSO stock solutions in growth medium, and typically incubated for three to seven days, with test article-containing medium replaced after three or four days. The number of viable cells is measured using CellTiter Glo assay (CTG, Promega, Madison, WI) or similar. Cell viability data are plotted using GraphPad Prism (GraphPad Software, Inc., San Diego, CA). In addition, a nonlinear regression model with a sigmoidal dose response and variable slope within GraphPad Prism is used to calculate the IC50 value of individual test articles. Similarly, HEK-293 and HeLa calls can also be tested by methods known in the art. • f. Nuclear translocation: LNCaP cells are plated on coverslips in 24 well plates in growth medium. Twenty-four hours after plating, medium is changed to RPMI+1% csFBS and the cells are maintained in this medium for two days. Medium is replaced again and the cells are treated. […]

The target of the next experiment is T1, Human AR (Homo sapiens, UniProt P10275).
T1 construct: expressed in transfected cells; host or cells: HEK-293
T1 sequence (P10275 1-920): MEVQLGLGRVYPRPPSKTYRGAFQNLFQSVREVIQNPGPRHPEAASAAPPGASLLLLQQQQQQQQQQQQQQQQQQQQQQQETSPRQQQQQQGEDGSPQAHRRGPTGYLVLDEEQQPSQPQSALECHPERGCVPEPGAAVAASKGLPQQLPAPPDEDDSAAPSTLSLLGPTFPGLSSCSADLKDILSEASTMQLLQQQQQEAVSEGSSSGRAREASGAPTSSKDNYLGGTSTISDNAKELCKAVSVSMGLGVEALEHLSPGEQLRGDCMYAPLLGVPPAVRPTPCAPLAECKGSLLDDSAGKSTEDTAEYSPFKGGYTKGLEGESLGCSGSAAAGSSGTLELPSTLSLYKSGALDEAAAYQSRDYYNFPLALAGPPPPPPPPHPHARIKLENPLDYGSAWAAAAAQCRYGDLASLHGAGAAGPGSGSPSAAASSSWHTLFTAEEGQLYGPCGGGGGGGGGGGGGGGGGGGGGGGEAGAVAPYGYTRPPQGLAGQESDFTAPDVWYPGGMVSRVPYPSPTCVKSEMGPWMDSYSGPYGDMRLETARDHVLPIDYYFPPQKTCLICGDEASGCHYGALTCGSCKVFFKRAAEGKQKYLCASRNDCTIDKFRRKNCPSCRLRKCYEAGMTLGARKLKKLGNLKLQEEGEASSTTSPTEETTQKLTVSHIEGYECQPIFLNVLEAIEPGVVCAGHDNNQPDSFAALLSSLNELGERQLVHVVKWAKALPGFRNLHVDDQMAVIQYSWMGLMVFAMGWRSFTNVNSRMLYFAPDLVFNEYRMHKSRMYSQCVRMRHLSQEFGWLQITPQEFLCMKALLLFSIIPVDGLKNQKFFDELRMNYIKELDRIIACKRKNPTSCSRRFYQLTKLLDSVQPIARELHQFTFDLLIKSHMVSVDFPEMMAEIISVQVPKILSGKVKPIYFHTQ
The experiment in a line: AR transactivation (antagonist mode, GRE-LUC luciferase in HEK-293 cells). Conditions: in combination with 0.1 nM R1881, read-out: AR Ant. IC50. The procedure:
as §1

In a further experiment the test system is MCF-7 cells. The experiment in a line: Cell proliferation assay (CellTiter Glo), MCF-7. Conditions: Homo sapiens, MCF7, 168 h; cell growth inhibition, six or seven days total treatment. The procedure:
as §1
Cells were plated at varying density in the respective growth medium in 96 well plates. […] The number of viable 22RV1 and HT-29 cells was measured using CellTiter Glo assay (CTG, Promega, Madison, WI) after three days of treatment. The other types of cancer cells were re-treated at three or four days and the number of viable cells was measured using CTG assay after a total treatment time of six or seven days. […] The number of viable cells is measured using CellTiter Glo assay (CTG, Promega, Madison, WI) or similar. […]

Setting [1] is: cell growth inhibition, three days of treatment.

Like-named read-outs stand apart in the source and are kept apart here. A value given as a limit tells only on which side of the number the result lay.

On to `CC1(C)C(=O)N(c2ccc(C#N)c(C(F)(F)F)c2)C(=S)N1c1ccc(C(=O)NCCCCCCNCc2ccc(-c3[nH]c4cc(F)cc5c4c3CCNC5=O)cc2)c(F)c1` [Compound 1.5, 4-(3-(4-cyano-3-(trifluoromethyl)phenyl)-5,5-dimethyl-4-oxo-2-thioxoimidazolidin-1-yl)-2-fluoro-N-(6-((4-(8-fluoro-1-oxo-2,3,4,6-tetrahydro-1H-azepino[5,4,3-cd]indol-5-yl)benzyl)amino)hexyl)benzamide], for which the values for the IC50 with HT-29 cells and at Human AR were 5 µM and 0.75 µM, respectively.

Turning to `C[C@]12CCC(=O)C[C@@H]1CC[C@@H]1[C@@H]2CC[C@]2(C)[C@@H](OCC(=O)N3CCN(C(=O)c4cc(Cc5n[nH]c(=O)c6ccccc56)ccc4F)CC3)CC[C@@H]12` [Compound 1.110, 4-(3-(4-(2-((5S,8R,9S,10S,13S,14S,17S)-10,13-dimethyl-3-oxohexadecahydro-1H-cyclopenta[a]phenanthren-17-yloxy)acetyl)piperazine-1-carbonyl)-4-fluorobenzyl)phthalazin-1(2H)-one], the IC50 (usually the concentration at which inhibition is half-maximal) in the experiment on HT-29 cells (setting [1]) came to 9.5 µM.

`CCC(=C(c1ccc(O)cc1)c1ccc(OCCN2CCN(C(=O)c3cc(Cc4n[nH]c(=O)c5ccccc45)ccc3F)CC2)cc1)c1ccccc1` [Compound 2.14, 4-(4-fluoro-3-(4-(2-(4-(1-(4-hydroxyphenyl)-2-phenylbut-1-enyl)phenoxy)ethyl)piperazine-1-carbonyl)benzyl)pthalazin-1(2H)-one]: the IC50 was 9.3 µM in the experiment on MCF-7 cells and greater than 30 µM in the experiment on HT-29 cells (setting [1]).

For the compound `C[C@]12CCC(=O)C[C@@H]1CC[C@@H]1[C@@H]2CC[C@]2(C)[C@@H](OCCOCC(=O)N3CCN(C(=O)c4cc(Cc5n[nH]c(=O)c6ccccc56)ccc4F)CC3)CC[C@@H]12` [Compound 1.104, 4-(3-(4-(2-(2-((5S,8R,9S,10S,13S,14S,17S)-10,13-dimethyl-3-oxohexadeca hydro-1H-cyclopenta[a]phenanthren-17-yloxy)ethoxy)acetyl)piperazine-1-carbonyl)-4-fluorobenzyl)phthalazin-1(2H)-one], the half-inhibitory concentration (IC50) in the experiment on HT-29 cells (setting [1]) was 9.3 µM.

With `C[C@](O)(COc1ccc(NCCCCCC(=O)N2CCN(C(=O)c3cc(Cc4n[nH]c(=O)c5ccccc45)ccc3F)CC2)cc1)C(=O)Nc1ccc(C#N)c(C(F)(F)F)c1` [Compound 1.83, (S)-N-(4-cyano-3-(trifluoromethyl)phenyl)-3-(4-(6-(4-(2-fluoro-5-((4-oxo-3,4-dihydrophthalazin-1-yl)methyl)benzoyl)piperazin-1-yl)-6-oxohexylamino)phenoxy)-2-hydroxy-2-methylpropanamide], in the experiment on HT-29 cells, the IC50 was greater than 10 µM.

Consider `O=C(c1ccc(OCCN2CCN(C(=O)c3cc(Cc4n[nH]c(=O)c5ccccc45)ccc3F)CC2)cc1)c1c(-c2ccc(O)cc2)sc2cc(O)ccc12` [Compound 2.13, 4-(4-fluoro-3-(4-(2-(4-(6-hydroxy-2-(4-hydroxyphenyl)benzo[b]thiophene-3-carbonyl)phenoxy)ethyl)piperazine-1-carbonyl)benzyl)phthalazin-1(2H)-one], for which the IC50 in the experiment with MCF-7 cells is 3.6 µM; in the experiment with HT-29 cells (setting [1]) it was 6 µM.

`CN(CCCCCC(=O)N1CCN(C(=O)c2cc(Cc3n[nH]c(=O)c4ccccc34)ccc2F)CC1)CCOc1ccc(C(=O)c2c(-c3ccc(O)cc3)sc3cc(O)ccc23)cc1` [Compound 2.4, 4-(4-fluoro-3-(4-(6-((2-(4-(6-hydroxy-2-(4-hydroxyphenyl)benzo[b]thiophene-3-carbonyl)phenoxy)ethyl)(methyl)amino)hexanoyl)piperazine-1-carbonyl)benzyl)phthalazin-1(2H)-one]: the IC50 in the experiment with MCF-7 cells worked out at 11 µM.

In the case of `C[C@](O)(CS(=O)(=O)c1ccc(NCCCCCC(=O)N2CCN(C(=O)c3cc(Cc4n[nH]c(=O)c5ccccc45)ccc3F)CC2)cc1)C(=O)Nc1ccc(C#N)c(C(F)(F)F)c1` [Compound 1.68, (R)-N-(4-cyano-3-(trifluoromethyl)phenyl)-3-(4-(6-(4-(2-fluoro-5-((4-oxo-3,4-dihydrophthalazin-1-yl)methyl)benzoyl)piperazin-1-yl)-6-oxohexylamino)phenylsulfonyl)-2-hydroxy-2-methylpropanamide], the values for the IC50 in the experiment with HT-29 cells and at Human AR were greater than 10 µM and 3.3 µM, respectively.

As for `CC1(C)C(=O)N(c2ccc(C#N)c(C(F)(F)F)c2)C(=S)N1c1ccc(C(=O)NCCCCCC(=O)N2CCN(C(=O)c3cc(Cc4n[nH]c(=O)c5ccccc45)ccc3F)CC2)c(F)c1` [Compound 1.1, 4-(3-(4-cyano-3-(trifluoromethyl)phenyl)-5,5-dimethyl-4-oxo-2-thioxoimidazolidin-1-yl)-2-fluoro-N-(6-(4-(2-fluoro-5-((4-oxo-3,4-dihydrophthalazin-1-yl)methyl)benzoyl)piperazin-1-yl)-6-oxohexyl)benzamide], the IC50 was found to be 0.3 µM in the experiment on HT-29 cells and 0.033 µM on Human AR.

As to `C[C@]12CCC(=O)C[C@@H]1CC[C@@H]1[C@@H]2CC[C@]2(C)[C@@H](OCCCCCC(=O)N3CCN(C(=O)c4cc(Cc5n[nH]c(=O)c6ccccc56)ccc4F)CC3)CC[C@@H]12` [Compound 1.2, 4-(3-(4-(6-(((5S,8R,9S,10S,13S,14S,17S)-10,13-dimethyl-3-oxohexadecahydro-1H-cyclopenta[a]phenanthren-17-yl)oxy)hexanoyl)piperazine-1-carbonyl)-4-fluorobenzyl)phthalazin-1(2H)-one], the IC50 in the experiment with HT-29 cells was greater than 10 µM.

As for `CC(O)(CS(=O)(=O)c1ccc(NCCn2cc(CN3CCN(C(=O)c4cc(Cc5n[nH]c(=O)c6ccccc56)ccc4F)CC3)nn2)cc1)C(=O)Nc1ccc(C#N)c(C(F)(F)F)c1` (stereo in doubt) [Compound 1.97, (S)-N-(4-cyano-3-(trifluoromethyl)phenyl)-3-(4-(2-(4-((4-(2-fluoro-5-((4-oxo-3,4-dihydrophthalazin-1-yl)methyl)benzoyl)piperazin-1-yl)methyl)-1H-1,2,3-triazol-1-yl)ethylamino)phenylsulfonyl)-2-hydroxy-2-methylpropanamide], the IC50 in the experiment on HT-29 cells is greater than 30 µM.

The values are drawn from US12398121B2 (Nuvation Bio Inc., priority 2018, dated 2025).
